{
  "source": "patent US20210079402A1",
  "about": "“INHIBITION OF ZSCAN4 FOR INHIBITION OF TUMOR GROWTH” (University of Maryland, Baltimore, priority 2018, published 2021)",
  "key": {"[1]": {"tested_on": "proteasome", "experiment": "ZSCAN4 accumulation after proteasome inhibition (immunoblot)", "type": "cell-based, human", "procedure": "Nuclear proteins were fractionated using Nuclear Extraction Kit following manufacture's protocol (Active Motif). Total cell lysate was prepared in RIPA buffer and sonicated. For the detection of endogenous ZSCAN4 in Tu167 cells, cells were harvested by accutase (Millipore) and Cytoskeleton buffer (10 mM PIPES, 300 mM sucrose, 100 mM NaCl, 3 mM MgCl2, 1 mM EGTA and 0.5% Triton X100) was used to fractionate cytosolic proteins. Then, pellets were lysed in urea solution (8 M Urea in 0.01 Tris pH 8+0.1 M NaH2PO4) and sonicated. Nuclear proteins were electrophoresed in 8% polyacrylamide gels and transferred to a PVDF membrane. Immunoblot was performed using the following primary antibodies: ZSCAN4 (Origene; 1:1000), GAPDH (Santa Cruz; 1:5000), Actin (Sigma; 1:500), Lamin B (Santa Cruz; 1:2000) and with HRP (horseradish peroxidase) conjugated secondary antibodies (Millipore; 1:5000). Protein bands were detected using Pierce ECL Western Blotting Substrate (Thermo Scientific). SuperSignal West Femto (Thermo Scientific) was used to detect endogenous ZSCAN4 in Tu167 cells. All immunoblots shown represent at least 3 independent experiments.\nWT Tu167 cells were treated with indicated concentration of MG132 for 3-12 h. Cells treated with vehicle only were used as controls. Nuclear protein was isolated using urea extraction buffer. Then, 100 μg of nuclear lysate was diluted in IP-RIPA buffer with 0.1% SDS and denatured by heating to 90° C. for 10 minutes. Samples were taken for co-immunoprecipitation and immunoblot analyses.\nThis prompted examination of the UPS. tet-ZSCAN4 cells were incubated with the proteasome inhibitor MG132 at multiple time points. […] Furthermore, we show a time dependence (FIG. 18C) and a dose response (FIG. 18D) to proteasome inhibition by MG132.\nTo exclude that the response was specific to the exogenous ZSCAN4 induction, wild type (WT) Tu167 cells were treated with 5 uM MG132 for 0-12 h."}, "[2]": {"tested_on": "proteasome", "experiment": "ZSCAN4 / K48 ubiquitin co-localization by confocal microscopy", "type": "cell-based, human", "conditions": "WT Tu167 cells, 5 h; untreated about 5%", "procedure": "Cells were fixed in ice cold methanol/acetic acid (3:1). The fixed cells were dropped on microscope slides. Antigen retrieval was performed followed by blocking for 10 min at room temperature. Primary antibody was incubated overnight at 4° C. for the following antigens: ZSCAN4 (Origene, 1:1000) and Ubiquitin Lysine 48 (Millipore 1: 2000). The slides were washed and incubated with secondary antibodies conjugated with Alexa-488 or 568 at room temperature for 1 h and then treated with DAPI and To-Pro-3 to stain the nuclei. Slides were mounted and visualized by a Zeiss 510-confocal microscope. Co-localization analyses were performed by ImageJ software (Schneider et al., 2012);\nTo further validate the lysine 48 polyubiquitination of ZSCAN4 protein, WT Tu167 cells were treated with or without MG132 for 5 h and co-immunostained for anti-K48-Ub and anti-ZSCAN4 (FIG. 19C)."}, "[3]": {"tested_on": "autophagy in tet-ZSCAN4 Tu167 cells", "experiment": "Autophagy pathway assay (immunoblot)", "type": "cell-based, human", "conditions": "5 nM Bafilomycin A1 or 25 μM Chloroquine", "procedure": "tet-ZSCAN4 Tu167 cells were treated for 24 h with Dox and then autophagy inhibitors: 5 nM of Bafilomycin A1 or 25 μM of Chloroquine (Sigma) were added for 24 h. Whole cell lysate (50 μg) in RIPA buffer was used on 8% SDS-PAGE analyzed by immunoblot to visualize the following antigens: anti-ZSCAN4 (1:1000; Origene), anti-p62 (1:5000; Sigma), anti-LC3 (1:1000; CellSignaling Technology), Anti-Beta Actin (1:10,000; Millipore). All data shown represent at least 3 independent experiments."}, "[4]": {"target": "T1, telomerase (UniProt O14746 1-1132, limits assumed)", "T1 construct": "The tie to the hTERT protein subunit is my reading; also called hTERT", "T1 sequence (O14746 whole entry)": "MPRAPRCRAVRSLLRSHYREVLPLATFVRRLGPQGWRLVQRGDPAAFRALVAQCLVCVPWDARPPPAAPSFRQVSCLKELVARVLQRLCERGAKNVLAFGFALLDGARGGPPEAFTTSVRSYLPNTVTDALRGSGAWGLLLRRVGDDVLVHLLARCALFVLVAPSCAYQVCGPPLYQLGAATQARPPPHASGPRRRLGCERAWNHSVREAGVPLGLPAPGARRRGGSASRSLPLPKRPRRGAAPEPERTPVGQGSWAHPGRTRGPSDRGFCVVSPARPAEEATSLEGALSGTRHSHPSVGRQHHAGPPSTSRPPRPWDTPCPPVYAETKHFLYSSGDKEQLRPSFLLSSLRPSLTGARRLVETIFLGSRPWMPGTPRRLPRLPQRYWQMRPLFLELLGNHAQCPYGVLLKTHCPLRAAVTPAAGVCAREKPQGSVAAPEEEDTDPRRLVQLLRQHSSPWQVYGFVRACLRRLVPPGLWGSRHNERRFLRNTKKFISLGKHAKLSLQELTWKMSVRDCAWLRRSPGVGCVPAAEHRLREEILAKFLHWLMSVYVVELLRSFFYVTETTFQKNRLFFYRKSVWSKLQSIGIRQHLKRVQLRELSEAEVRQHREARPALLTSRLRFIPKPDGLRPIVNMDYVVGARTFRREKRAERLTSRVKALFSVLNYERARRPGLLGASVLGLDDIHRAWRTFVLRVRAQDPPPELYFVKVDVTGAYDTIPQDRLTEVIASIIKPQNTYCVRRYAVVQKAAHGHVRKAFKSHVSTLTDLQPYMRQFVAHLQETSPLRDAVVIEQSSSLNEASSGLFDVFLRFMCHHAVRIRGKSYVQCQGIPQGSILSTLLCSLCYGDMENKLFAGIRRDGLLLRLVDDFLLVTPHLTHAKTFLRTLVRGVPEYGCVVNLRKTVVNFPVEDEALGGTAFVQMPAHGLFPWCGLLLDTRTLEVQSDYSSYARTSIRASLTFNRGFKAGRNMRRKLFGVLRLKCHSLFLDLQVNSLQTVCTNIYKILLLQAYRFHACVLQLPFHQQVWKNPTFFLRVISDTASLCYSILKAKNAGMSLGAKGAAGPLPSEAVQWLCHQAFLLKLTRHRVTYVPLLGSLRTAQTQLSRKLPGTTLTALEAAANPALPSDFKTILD", "experiment": "ZSCAN4 complex analysis (ZSCAN4 immunoprecipitation followed by mass spectrometry)"}},
  "note": "Where a SMILES comes first, the peptide text is derived from it. The star is where a group is joined. Cbz = O=C(OCc1ccccc1)*",
  "data": [
    {"molecule": "CC(C)C[C@@H](C=O)NC(=O)[C@H](CC(C)C)NC(=O)[C@H](CC(C)C)NC(=O)OCc1ccccc1", "note": "[MG132] (Cbz-Leu-Leu-Leu-aldehyde)", "values": [
      {"measurement": "ZSCAN4 accumulation versus dose", "setting": "[1]; tet-ZSCAN4 cells", "result": "dose response"},
      {"measurement": "ZSCAN4 accumulation over time", "setting": "[1]; tet-ZSCAN4 cells, multiple time points through 12 h", "result": "time dependent accumulation of ZSCAN4"},
      {"measurement": "endogenous ZSCAN4 level", "setting": "[1]; wild type Tu167 cells, 5 uM, 0-12 h", "result": "endogenous ZSCAN4 accumulates"},
      {"measurement": "fraction of ZSCAN4 co-localized with K48-Ub relative to untreated", "setting": "[2]", "result": 4, "unit": "fold"}
    ]},
    {"molecule": "CO/C1=C\\C(C)=C\\[C@@H](C)[C@@H](O)[C@@H](C)C/C(C)=C/C=C/[C@H](OC)[C@@H]([C@@H](C)[C@@H](O)[C@H](C)[C@@]2(O)C[C@@H](O)[C@H](C)[C@@H](C(C)C)O2)OC1=O", "note": "[Bafilomycin A1]", "values": [
      {"measurement": "ZSCAN4 levels", "setting": "[3]", "result": "remained unchanged"},
      {"measurement": "p62 and LC-3 levels", "setting": "[3]", "result": "accumulate"}
    ]},
    {"molecule": "CCN(CC)CCCC(C)Nc1ccnc2cc(Cl)ccc12", "note": "(stereo not drawn) [Chloroquine]", "values": [
      {"measurement": "ZSCAN4 levels", "setting": "[3]", "result": "remained unchanged"},
      {"measurement": "p62 and LC-3 levels", "setting": "[3]", "result": "accumulate"}
    ]},
    {"molecule": "human ZSCAN4 (Zinc finger and SCAN domain containing 4) (other, UniProt Q8NAM6 1-433, looked up, Immunoprecipitated from nuclear protein lysates; also called FLAG-ZSCAN4; tet-FLAG-ZSCAN4) MALDLRTIFQCEPSENNLGSENSAFQQSQGPAVQREEGISEFSRMVLNSFQDSNNSYARQELQRLYRIFHSWLQPEKHSKDEIISLLVLEQFMIGGHCNDKASVKEKWKSSGKNLERFIEDLTDDSINPPALVHVHMQGQEALFSEDMPLRDVIVHLTKQVNAQTTREANMGTPSQTSQDTSLETGQGYEDEQDGWNSSSKTTRVNENITNQGNQIVSLIIIQEENGPRPEEGGVSSDNPYNSKRAELVTARSQEGSINGITFQGVPMVMGAGCISQPEQSSPESALTHQSNEGNSTCEVHQKGSHGVQKSYKCEECPKVFKYLCHLLAHQRRHRNERPFVCPECQKGFFQISDLRVHQIIHTGKKPFTCSMCKKSFSHKTNLRSHERIHTGEKPYTCPFCKTSYRQSSTYHRHMRTHEKITLPSVPSTPEAS", "values": [
      {"measurement": "binding result", "setting": "[4]", "result": "no binding"}
    ]}
  ]
}
